# Data from PubChem BioAssay AID1918999 (Molecular Pharmacology Branch, DTP, NCI, 2023).
# System: 556581-035-R-J1-PDC complex spheroid growth
# Assay: Anticancer human tumor 556581-035-R-J1-PDC patient-derived ovarian carcinoma cell line growth inhibition [AhR]
# Conditions: for IC50: curve of first compound; for viability, T/C: stronger effect = lower value
# From the text: Multicellular complex tumor spheroid response to aryl hydrocarbon receptor antagonists in combination with a variety of drugs and investigational agents in selected tumor cell lines
# The current study was undertaken to assess response to aryl hydrocarbon receptor antagonists in combination with standard-of-care drugs and investigational agents in solid tumor complex spheroid models. Complex spheroids include a stromal component modeled by human endothelial cells (HUVEC) and fibroblasts modeled by human mesenchymal stem cells (MSCs). The concentration ranges selected for each drug and investigational agent were based upon clinically achievable concentrations if the clinical Cmax of the agent was known.
# Compounds. The drugs and investigational agents: BAY 2416964 (NSC825713), GNF351 (NSC835774), CH-223191 (NSC835775), CPI-455 (NSC825282), aza-TdCyd (NSC777586), decitabine (NSC127716), belinostat (NSC758774), entinostat (NSC756642), pevonedistat (NSC761192), tazemetostat (NSC777109), talazoparib (NSC765396), olaparib (NSC753686), selinexor (NSC780203), nedisertib (M3814, NSC802822), bortezomib (NSC756655), venetoclax (NSC766270), doxorubicin (NSC123127), elimusertib (BAY189344, NSC800525), ceralasertib (AZD6738, NSC777638), TAK-243 (NSC785004), alisertib (NSC759677), etoposide (NSC141540), topotecan (NSC609699), eribulin (NSC707389), gemcitabine (NSC613327), carboplatin (NSC241240), cisplatin (NSC119875), and SN-38 (NSC673596) were obtained from the National Cancer Institute (NCI) Developmental Therapeutics Program Chemical Repository (32). The FDA-approved anticancer drug set is available from the Developmental Therapeutics Program at https://dtp.cancer.gov/organization/dscb/obtaining/available plates.htm. […] The stock solutions were prepared in dimethyl sulfoxide (DMSO, Sigma-Aldrich, St. Louis, MO, cat. D2650), except for the platinum compounds which were prepared in saline (Quality Biological, Gaithersburg, MD, cat. 114-055-101), at 800-fold the tested concentration and stored at -70 degrees C prior to their use. All drugs and investigational agents were tested over a range starting from a high concentration at or near the clinical Cmax and decreasing in half-log increments. If the clinical Cmax for an agent had not been determined, the highest concentration tested was 10 microM (Table 1).
# Cell Culture. All cells were maintained in an incubator at 37 degrees C and 5% CO2 with 95% humidity. The PDC lines were cultured according to standard operating procedures established by the NCI PDMR (https://pdmr.cancer.gov). Briefly, all PDCs were thawed and cultured in Matrigel-coated flasks prepared with a working solution of 1X Ham's F-12 nutrient mix, without supplementation (Invitrogen, Waltham, MA, cat. 11765054), 100 U/mL penicillin-streptomycin (Invitrogen, cat. 15140122), and 2.5% Matrigel (Corning Inc., Corning, NY, cat. 354248) for the first three passages. All PDCs were cultured in complete DMEM/F-12 media containing advanced DMEM/F-12 (Invitrogen, cat. 12634028), 4.9% defined fetal bovine serum, heat inactivated (HyClone Laboratories Inc., Logan, UT, cat. SH30070.03HI), 389 ng/mL hydrocortisone (Sigma-Aldrich, cat. H4001), 9.7 ng/mL human EGF recombinant protein (Invitrogen, cat. PHG0313), 23.4 microg/mL adenine (Sigma-Aldrich, cat. A2786), 97.3 U/mL penicillin-streptomycin (Invitrogen, cat. 15140122), 1.9 mM L-glutamine (Invitrogen, cat. 25030081), and 9.7 microM Y-27632 dihydrochloride (Tocris Bioscience, Bristol, United Kingdom, cat. 1254). The PDCs were cultured in complete DMEM/F12 media without 10 microM Y-27632 dihydrochloride for at least two passages prior to the screen. The established cell lines NCI-H1341 and […] were cultured in DMEM/F-12, HEPES (Invitrogen, cat. 11330032), 5% defined fetal bovine serum (HyClone Laboratories Inc., cat. SH30070.03), ITS premix universal culture supplement [insulin (5 microg/mL), transferrin (5 microg/mL), and selenious acid (5 ng/mL)] […]
# [1] = second compound 0.1 µM, first compound 0.0316 µM
# [2] = second compound 0.1 µM, first compound 0.1 µM
# [3] = second compound 0.1 µM, first compound 0.316 µM
# [4] = second compound 0.1 µM, first compound 1 µM
# [5] = second compound 0.316 µM, first compound 0.0316 µM
# [6] = second compound 0.316 µM, first compound 0.1 µM
# [7] = second compound 0.316 µM, first compound 0.316 µM
# [8] = second compound 0.316 µM, first compound 1 µM
# [9] = second compound 1 µM, first compound 0.0316 µM
# [10] = second compound 1 µM, first compound 0.1 µM
# [11] = second compound 1 µM, first compound 0.316 µM
# [12] = second compound 1 µM, first compound 1 µM
# [13] = second compound 3.16 µM, first compound 0.0316 µM
# [14] = second compound 3.16 µM, first compound 0.1 µM
# [15] = second compound 3.16 µM, first compound 0.316 µM
# [16] = second compound 3.16 µM, first compound 1 µM
# [17] = second compound 10 µM, first compound 0.0316 µM
# [18] = second compound 10 µM, first compound 0.1 µM
# [19] = second compound 10 µM, first compound 0.316 µM
# [20] = second compound 10 µM, first compound 1 µM
# 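Wherever viability, T/C is given: compound exposure lasted 7 days; 100% = DMSO vehicle control growth.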
compound,measurement,setting,value
O=C(C=Cc1cccc(S(=O)(=O)Nc2ccccc2)c1)NO + Cc1ccccc1N=Nc1ccc(NC(=O)c2ccnn2C)c(C)c1,IC50,second compound 0.1 µM,1200 nM
same,IC50,second compound 0.316 µM,1340 nM
same,IC50,second compound 1 µM,1280 nM
same,IC50,second compound 3.16 µM,1130 nM
same,IC50,second compound 10 µM,1540 nM
same,"viability, T/C",[1],99.8%
same,"viability, T/C",[2],113%
same,"viability, T/C",[3],87%
same,"viability, T/C",[4],50.8%
same,"viability, T/C","second compound 0.1 µM, first compound 3.16 µM",28.4%
same,"viability, T/C","second compound 0.1 µM, first compound 10 µM",4.1%
same,"viability, T/C",[5],106%
same,"viability, T/C",[6],92.7%
same,"viability, T/C",[7],91.9%
same,"viability, T/C",[8],57.1%
same,"viability, T/C","second compound 0.316 µM, first compound 3.16 µM",24.9%
same,"viability, T/C","second compound 0.316 µM, first compound 10 µM",4.53%
same,"viability, T/C",[9],93.9%
same,"viability, T/C",[10],107%
same,"viability, T/C",[11],91.7%
same,"viability, T/C",[12],53.2%
same,"viability, T/C","second compound 1 µM, first compound 3.16 µM",27.7%
same,"viability, T/C","second compound 1 µM, first compound 10 µM",6.45%
same,"viability, T/C",[13],96.4%
same,"viability, T/C",[14],90.5%
same,"viability, T/C",[15],77.7%
same,"viability, T/C",[16],51.4%
same,"viability, T/C","second compound 3.16 µM, first compound 3.16 µM",27.1%
same,"viability, T/C","second compound 3.16 µM, first compound 10 µM",5.72%
same,"viability, T/C",[17],86.2%
same,"viability, T/C",[18],83.2%
same,"viability, T/C",[19],79.8%
same,"viability, T/C",[20],61%
same,"viability, T/C","second compound 10 µM, first compound 3.16 µM",30.9%
same,"viability, T/C","second compound 10 µM, first compound 10 µM",7.96%
CCc1c2c(nc3ccc(O)cc13)-c1cc3c(c(=O)n1C2)COC(=O)[C@]3(O)CC + Cc1cncc(-c2nc(NCCc3c[nH]c4ccccc34)c3ncn(C(C)C)c3n2)c1,IC50,second compound 0.1 µM,14.8 nM
same,IC50,second compound 0.316 µM,15.4 nM
same,IC50,second compound 1 µM,13.7 nM
same,IC50,second compound 3.16 µM,18.5 nM
same,IC50,second compound 10 µM,16.8 nM
same,"viability, T/C","second compound 0.1 µM, first compound 0.000949 µM",91.8%
same,"viability, T/C","second compound 0.1 µM, first compound 0.003 µM",86.4%
same,"viability, T/C","second compound 0.1 µM, first compound 0.00949 µM",56.4%
same,"viability, T/C","second compound 0.1 µM, first compound 0.03 µM",36%
same,"viability, T/C","second compound 0.1 µM, first compound 0.0949 µM",17.5%
same,"viability, T/C","second compound 0.1 µM, first compound 0.3 µM",10.5%
same,"viability, T/C","second compound 0.316 µM, first compound 0.000949 µM",97.3%
same,"viability, T/C","second compound 0.316 µM, first compound 0.003 µM",89.2%
same,"viability, T/C","second compound 0.316 µM, first compound 0.00949 µM",55.7%
same,"viability, T/C","second compound 0.316 µM, first compound 0.03 µM",40%
same,"viability, T/C","second compound 0.316 µM, first compound 0.0949 µM",14.4%
same,"viability, T/C","second compound 0.316 µM, first compound 0.3 µM",10.8%
same,"viability, T/C","second compound 1 µM, first compound 0.000949 µM",101%
same,"viability, T/C","second compound 1 µM, first compound 0.003 µM",90.2%
same,"viability, T/C","second compound 1 µM, first compound 0.00949 µM",60.6%
same,"viability, T/C","second compound 1 µM, first compound 0.03 µM",27.1%
same,"viability, T/C","second compound 1 µM, first compound 0.0949 µM",16.2%
same,"viability, T/C","second compound 1 µM, first compound 0.3 µM",9.89%
same,"viability, T/C","second compound 3.16 µM, first compound 0.000949 µM",84.2%
same,"viability, T/C","second compound 3.16 µM, first compound 0.003 µM",90.8%
same,"viability, T/C","second compound 3.16 µM, first compound 0.00949 µM",65.4%
same,"viability, T/C","second compound 3.16 µM, first compound 0.03 µM",38.8%
same,"viability, T/C","second compound 3.16 µM, first compound 0.0949 µM",14.6%
same,"viability, T/C","second compound 3.16 µM, first compound 0.3 µM",13.8%
same,"viability, T/C","second compound 10 µM, first compound 0.000949 µM",81.5%
same,"viability, T/C","second compound 10 µM, first compound 0.003 µM",73.8%
same,"viability, T/C","second compound 10 µM, first compound 0.00949 µM",63%
same,"viability, T/C","second compound 10 µM, first compound 0.03 µM",37.7%
same,"viability, T/C","second compound 10 µM, first compound 0.0949 µM",17.2%
same,"viability, T/C","second compound 10 µM, first compound 0.3 µM",9.08%
Nc1ncn(C2CC(O)C(CO)O2)c(=O)n1 (stereo not given) + Cc1cncc(-c2nc(NCCc3c[nH]c4ccccc34)c3ncn(C(C)C)c3n2)c1,IC50,second compound 0.1 µM,> 1000 nM
same,IC50,second compound 0.316 µM,> 1000 nM
same,IC50,second compound 1 µM,> 1000 nM
same,IC50,second compound 3.16 µM,> 1000 nM
same,IC50,second compound 10 µM,> 1000 nM
same,"viability, T/C","second compound 0.1 µM, first compound 0.00316 µM",97.2%
same,"viability, T/C","second compound 0.1 µM, first compound 0.01 µM",95.1%
same,"viability, T/C",[1],106%
same,"viability, T/C",[2],89%
same,"viability, T/C",[3],84.8%
same,"viability, T/C",[4],77.4%
same,"viability, T/C","second compound 0.316 µM, first compound 0.00316 µM",102%
same,"viability, T/C","second compound 0.316 µM, first compound 0.01 µM",93.6%
same,"viability, T/C",[5],90.7%
same,"viability, T/C",[6],87%
same,"viability, T/C",[7],93.1%
same,"viability, T/C",[8],85.6%
same,"viability, T/C","second compound 1 µM, first compound 0.00316 µM",91.4%
same,"viability, T/C","second compound 1 µM, first compound 0.01 µM",105%
same,"viability, T/C",[9],104%
same,"viability, T/C",[10],110%
same,"viability, T/C",[11],92.6%
same,"viability, T/C",[12],82.2%
same,"viability, T/C","second compound 3.16 µM, first compound 0.00316 µM",98.2%
same,"viability, T/C","second compound 3.16 µM, first compound 0.01 µM",95.5%
same,"viability, T/C",[13],93.6%
same,"viability, T/C",[14],94.7%
same,"viability, T/C",[15],88.3%
same,"viability, T/C",[16],90.2%
same,"viability, T/C","second compound 10 µM, first compound 0.00316 µM",83.7%
same,"viability, T/C","second compound 10 µM, first compound 0.01 µM",78.5%
same,"viability, T/C",[17],81.6%
same,"viability, T/C",[18],82%
same,"viability, T/C",[19],81.8%
same,"viability, T/C",[20],83.6%
